# According to patent EP4745134A1 (Jiangsu Yahong Meditech Co., Ltd., priority 2023, dated 2025):
# Tests used:
# [1] = system: HCT116 MTAP KO cells; experiment: Inhibitory activity against cell proliferation (CellTiter Glo, 6 days), HCT116 MTAP KO; assay type: cell-based; settings: for IC50: Homo sapiens, HCT-116, 144 h, HCT116 MTAP KO cells, 6 days, CellTiter Glo, read-out: HCT116 MTAP KO IC50; for Selectivity HCT 116-WT/ HCT116 MTAP KO: ratio of IC50 HCT116-WT / HCT116 MTAP KO
# Procedure, shortened: (§1)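 Luminescence read-out (CellTiter Glo, 10 min shaking at room temperature) after 6 days of compound exposure; IC50 fitted against DMSO controls. Top dose 10000 nM, 4-fold steps, 8 points; 250 cells/well in McCoy's 5A + 10% FBS.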
# [2] = target: PRMT5-MTA (Homo sapiens, UniProt O14744); experiment: Enzymatic inhibitory activity against PRMT5-MTA (AlphaScreen); assay type: biochemical; settings: read-out: IC50
# Procedure, shortened: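 PRMT5/[…] (1 nM) was preincubated for 30 min at room temperature with 1 µM […] and 2.5 µM SAM, then exposed to compound (10-point, 3-fold from 1000 nM) for 15 min at 23 °C. Histone H4 substrate (5 nM) was added and reacted for 45 min at 23 °C. Symmetric dimethyl-R3 H4 was detected by AlphaScreen and IC50 calculated.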
# [3] = system: HCT116-WT cells; experiment: Inhibitory activity against cell proliferation (CellTiter Glo, 6 days), HCT116-WT; assay type: cell-based; settings: 144 h, HCT116-WT cells, 6 days, CellTiter Glo; read-out: HCT116-WT IC50
# Procedure, shortened: as §1
# PRMT5-MTA, sequence (O14744 whole entry): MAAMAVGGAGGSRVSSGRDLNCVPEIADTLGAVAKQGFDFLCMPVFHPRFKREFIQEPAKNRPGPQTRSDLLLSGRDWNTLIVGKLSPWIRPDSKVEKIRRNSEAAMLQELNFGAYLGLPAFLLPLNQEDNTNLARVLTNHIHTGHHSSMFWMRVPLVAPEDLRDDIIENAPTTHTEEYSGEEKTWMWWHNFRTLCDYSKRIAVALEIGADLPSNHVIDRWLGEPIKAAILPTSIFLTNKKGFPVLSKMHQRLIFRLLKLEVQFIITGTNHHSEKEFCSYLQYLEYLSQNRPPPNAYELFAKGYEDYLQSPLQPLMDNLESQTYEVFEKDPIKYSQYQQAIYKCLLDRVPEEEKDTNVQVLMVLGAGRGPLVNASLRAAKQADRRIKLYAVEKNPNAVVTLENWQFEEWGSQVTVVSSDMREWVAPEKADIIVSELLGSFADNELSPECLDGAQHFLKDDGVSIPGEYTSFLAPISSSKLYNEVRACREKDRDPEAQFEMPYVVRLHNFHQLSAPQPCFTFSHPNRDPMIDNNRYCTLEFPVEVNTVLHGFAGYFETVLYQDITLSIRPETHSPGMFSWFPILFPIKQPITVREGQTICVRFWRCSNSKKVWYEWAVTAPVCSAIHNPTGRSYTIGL
# PRMT5-MTA, sequence (Q9BQA1 whole entry partner): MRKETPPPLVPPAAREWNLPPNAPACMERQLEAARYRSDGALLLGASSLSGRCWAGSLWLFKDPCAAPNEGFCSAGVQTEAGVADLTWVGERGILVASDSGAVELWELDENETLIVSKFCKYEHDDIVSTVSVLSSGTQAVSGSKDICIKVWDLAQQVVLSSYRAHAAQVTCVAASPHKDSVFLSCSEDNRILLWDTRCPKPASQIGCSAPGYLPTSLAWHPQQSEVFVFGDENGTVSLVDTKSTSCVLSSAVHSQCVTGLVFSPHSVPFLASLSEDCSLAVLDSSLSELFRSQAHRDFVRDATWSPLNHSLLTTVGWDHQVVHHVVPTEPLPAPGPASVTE
SMILES,IC50 [1],Selectivity HCT 116-WT/ HCT116 MTAP KO [1],IC50 [2],IC50 [3]
"Cc1cc2cc(C(=O)N(Cc3ccc(-c4ccoc4)cn3)N(C)c3ncccn3)ccc2nc1N [Example 156, 2-amino-N-((5-(furan-3-yl)pyridin-2-yl)methyl)-N',3-dimethyl-N'-(pyrimidin-2-yl)quinoline-6-carbohydrazide]",76 nM,20.26,1.8 nM,1540 nM
"Cc1cc2cc(C(=O)N(Cc3ccc(C(F)(F)F)cn3)N(C)c3nccc(C(F)(F)F)n3)ccc2nc1N [Example 40, 2-amino-N',3-dimethyl-N-((5-(trifluoromethyl)pyridin-2-yl)methyl)-N'-(4-(trifluor omethyl)pyrimidin-2-yl)quinoline-6-carb ohydrazide]",83 nM,31.19,1.7 nM,2590 nM
"Cc1cc2nc(N)c3cnn(C)c3c2cc1C(=O)N1CC(C)CN1c1ncc(-c2cscn2)cc1F (stereo not shown) [Example 488, (4-amino-1,7-dimethyl-1H-pyrazolo[4,3-c]quinolin-8-yl)(2-(3-fluoro-5-(thiazol-4-yl)pyridin-2-yl)-4-methylpyrazolidin-1-yl)methanone]",25 nM,21.24,5.3 nM,531 nM
"CCN(C(=O)c1cc2c(cc1F)nc(N)c1cnn(C)c12)N(C)c1ccc(F)cn1 [Example 97, 4-amino-N-ethyl-7-fluoro-N'-(5-fluoropyridin-2-yl)-N',1-dimethyl-1H-pyrazolo[4,3-c]quinoline-8-carbohydrazide]",246 nM,,5.1 nM,> 10000 nM
"CCc1cc2cc(C(=O)N(Cc3ccc(C(F)(F)F)cn3)N(C)c3ncccn3)ccc2nc1N [Example 305, 2-amino-3-ethyl-N'-methyl-N'-(pyrimidin-2-yl)-iN-((5-(trifluoromethyl)pyridin-2-yl)methyl)quinoline-6-carbohydrazide]",85 nM,19.60,2.3 nM,1670 nM
"Cc1cc2cc(C(=O)N(Cc3ccc(C(F)(F)F)cn3)N(C)c3ncc4c(ccn4C)n3)ccc2nc1N [Compound 127, 2-amino-N',3-dimethyl-N'-(5-methyl-5H-pyrrolo[3,2-d]pyrimidin-2-yl)-N-((5-(trifluoromethyl)pyridin-2-yl)methyl)quinoline-6-carbohydrazide]",115 nM,16.55,4.9 nM,1900 nM
"[2H]C([2H])([2H])c1cc2cc(C(=O)N(Cc3ccc(C(F)(F)F)cn3)N(C)c3nccc4nccnc34)ccc2nc1N [Example 313, 2-amino-N'-methyl-3-(methyl-d3)-N'-(pyrido[3,4-b]pyrazin-5-yl)-N-((5-(trifluoromethyl)pyridin-2-yl)methyl)quinoline-6-c arbohydrazide]",38 nM,13.37,4.2 nM,508 nM
"Cc1cc2nc(N)c3cnn(C)c3c2cc1C(=O)N1CC(C)CN1c1ncc(-c2scnc2C)cc1F (stereo not shown) [Example 475, (4-amino-1,7-dimethyl-1H-pyrazolo[4,3-c]quinolin-8-yl)(2-(3-fluoro-5-(4-methylthiazol-5-yl)pyridin-2-yl)-4-methylpyrazolidin-1-yl)methanone]",63 nM,43.81,5.1 nM,2760 nM
"Cn1ncc2c(N)nc3cc(Cl)c(C(=O)N4CC5(CN4c4cccc(F)n4)CC(F)(F)C5)cc3c21 [Example 414, (4-amino-7-chloro-1-methyl-1H-pyrazolo [4,3-c]quinolin-8-yl)(2,2-difluoro-7-(6-fluoropyridin-2-yl)-6,7-diazaspiro[3.4]octan-6-yl)methanone]",18 nM,16.94,6.2 nM,305 nM
"Cc1cc2cc(C(=O)N(Cc3ccc(N4CC(F)(F)C4)cn3)N(C)c3ncccn3)ccc2nc1N [Compound 225, 2-amino-N-((5-(3,3-difluoroazetidin-1-yl)pyridin-2-yl)methyl)-N',3-dimethyl-N'-(pyrimidin-2-yl)quinoline-6-carbohydrazide]",204 nM,13.00,16 nM,2650 nM
"Cc1cc2cc(C(=O)N(Cc3ccc(-c4cnn(C)c4)cn3)N(c3ncccn3)C3CC3)ccc2nc1N [Example 152, 2-amino-N'-cyclopropyl-3-methyl-N-((5-(1-methyl-1H-pyrazol-4-yl)pyridin-2-yl)methyl)-N'-(pyrimidin-2-yl)quinoline-6-c arbohydrazide]",35 nM,28.51,4.4 nM,998 nM
"Cc1cc2cc(C(=O)N(Cc3ccc(-c4nncs4)cn3)N(C)c3nccc4nccnc34)ccc2nc1N [Example 232, N-((5-(1,3,4-thiadiazol-2-yl)pyridin-2-yl)methyl)-2-amino-N',3-dimethyl-N'-(pyrido[3,4-b]pyrazin-5-yl)quinoline-6-carbohy drazide]",46 nM,21.63,4.3 nM,995 nM
"Cc1cc2cc(C(=O)N(Cc3ccc(C4(F)COC4)cn3)N(C)c3ncccn3)ccc2nc1N [Example 286, 2-amino-N-((5-(3-fluorooxetan-3-yl)pyridin-2-yl)methyl)-N',3-dimethyl-N'-(pyrimidin-2-yl)quinoline-6-carbohydrazide]",91 nM,26.60,2.7 nM,2420 nM
"COC(C)(C)C#Cc1cnc(N2CC(C)CN2C(=O)c2cc3c(cc2C)nc(N)c2cnn(C)c23)c(F)c1 (stereo not shown) [Example 491, (4-amino-1,7-dimethyl-1H-pyrazolo[4,3-c]quinolin-8-yl)(2-(3-fluoro-5-(3-methoxy-3-methylbut-1-yn-1-yl)pyridin-2-yl)-4-methylpyrazolidin-1-yl)methanone]",189 nM,11.81,8.6 nM,2230 nM
"Cc1cc2cc(C(=O)N(Cc3ccc(C(F)(F)F)cn3)N(C)c3c(F)ccc4nccnc34)ccc2nc1N [Example 125, 2-amino-N'-(6-fluoroquinoxalin-5-yl)-N',3-dimethyl-N-((5-(trifluoromethyl)pyridin-2-yl)methyl)quinoline-6-carbohydrazide]",84 nM,27.54,1.7 nM,2310 nM
"Cn1ncc2c(N)nc3cc(Cl)c(C(=O)N4CC5(CC5)CN4c4ncc(Br)cc4F)cc3c21 [Example 345, (4-amino-7-chloro-1-methyl-1H-pyrazolo [4,3-c]quinolin-8-yl)(6-(5-bromo-3-fluor opyridin-2-yl)-5,6-diazaspiro[2.4]heptan-5-yl)methanone]",44 nM,17.57,4.4 nM,773 nM
"Cc1cc2nc(N)c3cnn(C)c3c2cc1C(=O)N1CC(F)CN1c1ncccc1F (stereo not shown) [Example 450, (4-amino-1,7-dimethyl-1H-pyrazolo[4,3-c]quinolin-8-yl)(4-fluoro-2-(3-fluoropyridin-2-yl)pyrazolidin-1-yl)methanone]",20 nM,61.20,3.8 nM,1220 nM
